Where two headings read alike, the source gives them in different places.
Experiments:
[1] = target: T1, CIB1 and αIIb interaction (CIB1-GST : F-αIIb peptide) (Homo sapiens, UniProt Q99828); assay: FP assay, 1536-well qHTS format (primary and confirmatory screen); assay type: binding; details: for Curve Class (confirmatory screen): qHTS curve class
T1 construct: made in house; host or cells: BL-21 plus RIL cells (E. coli)
T1 sequence (Q99828 1-191): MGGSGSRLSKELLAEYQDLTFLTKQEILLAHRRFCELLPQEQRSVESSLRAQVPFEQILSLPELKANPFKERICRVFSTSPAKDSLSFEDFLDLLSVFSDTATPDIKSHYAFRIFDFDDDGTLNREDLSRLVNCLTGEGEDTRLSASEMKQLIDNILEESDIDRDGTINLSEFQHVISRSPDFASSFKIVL

[2] = target: T2, GST-CIB1 : F-scrambled peptide (Homo sapiens, UniProt Q99828); assay: FP scrambled-peptide counter screen, 1536-well format; assay type: binding; details: for Curve Class (counterscreen): qHTS curve class; for IC50: read-out: IC50 [μM] (counterscreen)
T2 construct: made in house; host or cells: BL-21 plus RIL cells (E. coli)
T2 sequence (Q99828 1-191): T1 sequence (Q99828 1-191)

[3] = confirmatory screen, negative sign = inhibitory curve
[4] = confirmatory screen, read-out: IC50 [μM] (confirmatory screen)
[5] = qHTS FP screen hits, Table S2, negative = inhibition
[6] = qHTS FP screen hits, Table S2, one class per curve where COUNT > 1, negative sign = inhibitory curve
[7] = qHTS FP screen hits, Table S2, read-out: IC50
[8] = counterscreen, negative sign = inhibitory curve
[9] = Table S3, confirmatory screen, a negative sign marks inhibitory curves
[10] = Table S3, confirmatory screen, negative = inhibition
[11] = Table S3, counterscreen, negative = inhibition
[12] = qHTS primary screen hits, Table S2, negative = inhibition
[13] = qHTS primary screen hits, Table S2, negative sign = inhibitory curve, several classes where COUNT > 1
[14] = qHTS primary screen hits, Table S2, read-out: IC50
[15] = Table S3, counterscreen, a negative sign marks inhibitory curves

Curve Class (counterscreen) [2, 15]	Confirm? (counterscreen) ([2]; counterscreen, YES/NO)	Compound	Efficacy (%) (confirmatory screen) ([1]; confirmatory screen)	Confirm? (confirmatory screen) ([1]; confirmatory screen, YES/NO)	Curve Class (confirmatory screen) [1, 3]	IC50 [1, 4] [µM]	Efficacy (%) [1, 5] [%]	Curve Class [1, 6]	IC50 [1, 7] [µM]	Efficacy (%) (counterscreen) ([2]; counterscreen)	Curve Class (counterscreen) [2, 8]	IC50 ([2]; counterscreen) [µM]	Curve Class (confirmatory screen) [1, 9]	Efficacy (%) (confirmatory screen) [1, 10]	Efficacy (%) (counterscreen) [2, 11]	IC50 ([2]; Table S3, counterscreen) [µM]	Efficacy (%) [1, 12] [%]	Curve Class [1, 13]	IC50 [1, 14] [µM]	Confirm? (confirmatory screen) ([1]; Table S3, confirmatory screen, YES/NO call)
		CCN1CCN(c2ccc(Nc3ccc(-c4ccc(C(N)=O)cc4)n4ncnc34)cc2)CC1.O=C(O)C(F)(F)F [NCGC00249351-01]	-64	YES	-2.4	22.4	-39	-2.2	35.5	-68	-2.2	50.1								
		O=C(Nc1ccc(S(=O)(=O)N2CCOCC2)cc1)c1cc(Cl)ccc1NS(=O)(=O)c1ccc(Cl)s1.O=C(O)C(F)(F)F [NCGC00249417-01]											4	-31	163	79.4				
		O=C(O)C(F)(F)F.c1ccc(-n2ccc(-c3nnc4n3CCCCC4)c2)cc1 [NCGC00249645-01]	-104	YES	-2.1	50.1	-91	-2.2	79.4	-62	-3	89.1								
4		CC(C)(O)CCc1ccc(OCc2cc(-c3cccc(OC(F)F)c3)c3ncccc3c2)cc1 [NCGC00249759-02]											4	-25	-28		-59	-2.2	24.1	
		Cc1ccc([N+](=O)[O-])[c]2c1[O][Hg]2 [NCGC00249897-01]											4	0	111		-49	-1.4	3.5	
4		COC(=O)c1cc(Cl)ccc1NS(=O)(=O)C(F)(F)F [NCGC00249937-01]											4	12	-16		-64	-2.2	44.7	
	YES	Cc1ccc(C)n1-c1sccc1C(=O)O [NCGC00253437-01]	-97	YES	-1.1	22.4				-36	-1.2	7.9					-59	-2.2	44.7	
		N#Cc1ccc(NS(=O)(=O)c2ccc(NC(=O)Cc3ccc(Cl)c(Cl)c3)cc2)cc1.O=C(O)C(F)(F)F [NCGC00253445-01]											2.3	146	202	70.8				
		Cc1cnc(-c2ccccc2C(C)C)nc1NCc1ccc(-c2ccc(F)nc2)cc1.O=C(O)C(F)(F)F [NCGC00253893-01]	-124	YES	-2.1	112				-90	-2.1	44.7					-52	-2.4	50.1	

Compound	Curve Class (counterscreen) [2, 15]	Confirm? (counterscreen) ([2]; counterscreen, YES/NO)	Efficacy (%) (confirmatory screen) ([1]; confirmatory screen)	Confirm? (confirmatory screen) ([1]; confirmatory screen, YES/NO)	Curve Class (confirmatory screen) [1, 3]	IC50 [1, 4] [µM]	Efficacy (%) [1, 5] [%]	Curve Class [1, 6]	IC50 [1, 7] [µM]	Efficacy (%) (counterscreen) ([2]; counterscreen)	Curve Class (counterscreen) [2, 8]	IC50 ([2]; counterscreen) [µM]	Curve Class (confirmatory screen) [1, 9]	Efficacy (%) (confirmatory screen) [1, 10]	Efficacy (%) (counterscreen) [2, 11]	IC50 ([2]; Table S3, counterscreen) [µM]	Efficacy (%) [1, 12] [%]	Curve Class [1, 13]	IC50 [1, 14] [µM]	Confirm? (confirmatory screen) ([1]; Table S3, confirmatory screen, YES/NO call)
O=C(O)C(F)(F)F.O=S(=O)(Nc1nccs1)c1ccc(Nc2nc(-c3ccccc3)cs2)cc1 [NCGC00262380-01]	-2.1												-2.2	-80	-81	50.1	-69	-2.2	50.1	YES
